Laboratory results published in article PMC12717519, “Chemical clues to infection: A pilot study on the differential secondary metabolite production during the life cycle of selected Cordyceps species” (IMA Fungus, 2025).
pIC50: −log10 of the molar value. In brackets after ≈: the same amount, converted by molar mass. Where two headings read alike, the source gives them in different places.

Assays:
Type in all cases: cell-based
Mouse fibroblast (L929) = assay: Cytotoxicity assay; conditions: serial dilution in 96-well plates
[1] = tested on: Escherichia coli (DSM 1116); assay: MIC serial dilution assay; conditions: serial dilution in 96-well microtiter plates, tested up to 67 µg/mL
Description: (§1) Serial dilution assays were performed in 96-well microtiter plates to determine the minimum inhibitory concentrations (MICs) against a panel of yeasts, filamentous fungi, and bacteria, as well as the half-maximal inhibitory concentrations (IC50) against human cell lines, following our previously described protocol ([Charria-Girón et al. 2023]).

[2] = tested on: Chromobacterium violaceum (DSM 30191); assay: MIC serial dilution assay; conditions: serial dilution in 96-well microtiter plates, tested up to 67 µg/mL
Description: as §1

[3] = tested on: Wickerhamomyces anomalus (DSM 6766); assay: MIC serial dilution assay; conditions: serial dilution in 96-well microtiter plates; tested up to 67 µg/mL
Description: as §1

[4] = tested on: Acinetobacter baumannii (DSM 30008); assay: MIC serial dilution assay; conditions: serial dilution in 96-well microtiter plates; tested up to 67 µg/mL
Description: as §1

[5] = tested on: Pseudomonas aeruginosa (PA14); assay: MIC serial dilution assay; conditions: serial dilution in 96-well microtiter plates, tested up to 67 µg/mL
Description: as §1

[6] = tested on: Rhodotorula glutinis (DSM 10134); assay: MIC serial dilution assay; conditions: serial dilution in 96-well microtiter plates; tested up to 67 µg/mL
Description: as §1

[7] = tested on: Mycobacterium smegmatis (ATCC 700084); assay: MIC serial dilution assay; conditions: serial dilution in 96-well microtiter plates, tested up to 67 µg/mL
Description: as §1

[8] = tested on: Mucor hiemalis (DSM 2656); assay: MIC serial dilution assay; conditions: serial dilution in 96-well microtiter plates, tested up to 67 µg/mL
Description: as §1

[9] = tested on: Schizosaccharomyces pombe (DSM 70572); assay: MIC serial dilution assay; conditions: serial dilution in 96-well microtiter plates; tested up to 67 µg/mL
Description: as §1

[10] = tested on: Candida albicans (DSM 1665); assay: MIC serial dilution assay; conditions: serial dilution in 96-well microtiter plates, tested up to 67 µg/mL
Description: as §1

[11] = tested on: Bacillus subtilis (DSM 10); assay: microbe, parasite or virus in culture; conditions: serial dilution in 96-well microtiter plates, tested up to 67 µg/mL
Description: as §1

[12] = tested on: Staphylococcus aureus (DSM 346); assay: microbe, parasite or virus in culture; conditions: serial dilution in 96-well microtiter plates, tested up to 67 µg/mL
Description: as §1

[13] = tested on: Human endocervival adenocarcinoma (KB3.1); assay: cells
Description: as §1

[14] = Escherichia coli, DSM1116, read-out: MIC
[15] = Pseudomonas aeruginosa, PA14, read-out: MIC
[16] = Bacillus subtilis, DSM10, read-out: MIC
[17] = Staphylococcus aureus, DSM346, read-out: MIC
[18] = KB3.1, serial dilution in 96-well plates, read-out: IC50

Compound | pIC50 (Mouse fibroblast (L929)) | MIC [1] | MIC [5] | MIC [7] | MIC [8] | MIC [10] | MIC [11] | MIC [12] | also measured
CCCC[C@H](C)[C@@H]1CC(=O)N[C@@H](Cc2c[nH]c3ccccc23)C(=O)N[C@@H](Cc2ccccc2)C(=O)N[C@H](CC(C)C)C(=O)O1 [Compound 7, beauveriolide Jb] | < 4.44 | n.i. (No inhibition up to 67 µg/mL) | n.i. (No inhibition up to 67 µg/mL) | n.i. (No inhibition up to 67 µg/mL) | n.i. (No inhibition up to 67 µg/mL) | n.i. (No inhibition up to 67 µg/mL) | n.i. (No inhibition up to 67 µg/mL) | n.i. (No inhibition up to 67 µg/mL) | MIC [2]: n.i. (No inhibition up to 67 µg/mL); MIC [3]: n.i. (No inhibition up to 67 µg/mL); MIC [4]: n.i. (No inhibition up to 67 µg/mL); MIC [6]: n.i. (No inhibition up to 67 µg/mL); MIC [9]: n.i. (No inhibition up to 67 µg/mL); pIC50 [13]: 4.44
CC(=O)c1nccc2c1[nH]c1ccccc12 [Compound 11, 1-acetyl-β-carboline] | – | – | – | – | – | – | – | – | pIC50 (Mouse fibroblast (L929); Mus musculus): < 4.44; MIC [1, 14]: > 67 µg/mL; MIC [5, 15]: > 67 µg/mL; MIC ([7]; Mycolicibacterium smegmatis, ATCC700084, read-out: MIC): > 67 µg/mL; MIC ([8]; Mucor hiemalis, DSM2656, read-out: MIC): > 67 µg/mL; MIC ([10]; Candida albicans, DSM1665, read-out: MIC): > 67 µg/mL; MIC [11, 16]: > 67 µg/mL; MIC [12, 17]: > 67 µg/mL; pIC50 ([13]; Homo sapiens, KB 3-1, KB3.1, serial dilution in 96-well plates, read-out: IC50): < 4.44
CNC(C)C1CCC(N)C(OC2C(N)CC(N)C(OC3OCC(C)(O)C(NC)C3O)C2O)O1 (stereo not shown) [gentamicin, reference compound] | – | – | – | – | – | – | – | – | MIC [1, 14]: 0.42 µg/mL (≈ 0.879 µM); MIC ([2]; Chromobacterium violaceum, DSM30191, read-out: MIC): 1.7 µg/mL (≈ 3.56 µM); MIC [5, 15]: 0.21 µg/mL (≈ 0.44 µM); MIC [12, 17]: 0.21 µg/mL (≈ 0.44 µM)
NC[C@H]1O[C@H](O[C@H]2[C@H](O)[C@@H](O[C@H]3O[C@H](CO)[C@@H](O)[C@H](N)[C@H]3O)[C@H](N)C[C@@H]2N)[C@H](O)[C@@H](O)[C@@H]1O [kanamycin, reference compound] | – | – | – | 1.70^K µg/mL | – | – | – | – | –
C[C@@H]1[C@H](O)[C@@H](C)/C=C/C=C/CC/C=C/C=C/C=C/C=C/C(O[C@H]2O[C@H](C)[C@@H](O)[C@H](N)[C@@H]2O)CC2O[C@](O)(CC(O)C(O)CCC(O)CC(O)CC(O)CC(=O)O[C@H]1C)CC(O)C2C(=O)O (stereo partly shown) [nystatin, reference compound] | – | – | – | – | 8.30^N µg/mL | 8.3^N µg/mL | – | – | MIC [3]: 16.6^N µg/mL; MIC [6]: 4.20^N µg/mL; MIC [9]: 8.30^N µg/mL
CN(C)[C@@H]1C(O)=C(C(N)=O)C(=O)[C@@]2(O)C(O)=C3C(=O)c4c(O)cccc4[C@@](C)(O)[C@H]3[C@H](O)[C@@H]12 [oxytetracycline, reference compound] | – | – | – | – | – | – | – | – | MIC [11, 16]: 16.6 µg/mL (≈ 36.1 µM)
beauveriolide L [Compound 6] | < 4.44 | n.i. (No inhibition up to 67 µg/mL) | n.i. (No inhibition up to 67 µg/mL) | n.i. (No inhibition up to 67 µg/mL) | n.i. (No inhibition up to 67 µg/mL) | n.i. (No inhibition up to 67 µg/mL) | n.i. (No inhibition up to 67 µg/mL) | n.i. (No inhibition up to 67 µg/mL) | pIC50 [13, 18]: < 4.44
cyclo-((S)-Val-(R)-Val) [Compound 10] | < 4.44 | n.i. (No inhibition up to 67 µg/mL) | n.i. (No inhibition up to 67 µg/mL) | n.i. (No inhibition up to 67 µg/mL) | n.i. (No inhibition up to 67 µg/mL) | n.i. (No inhibition up to 67 µg/mL) | n.i. (No inhibition up to 67 µg/mL) | n.i. (No inhibition up to 67 µg/mL) | pIC50 [13, 18]: < 4.44
